The source of these data is patent USRE40594E1, “Inhibitors of the bitter taste response” (Mount Sinai School of Medicine of New York University, priority 1998, dated 2008).

Where a name gives a salt, the structure may show the parent alone. Read-outs that look alike come from different tables or passages of the source.

This test deals with bovine taste receptor cell membranes (taste receptors) with transducin. Briefly: G protein activation assay (trypsin sensitivity): activation of transducin by bitter tastant plus taste membranes. Particulars: for inhibition of taste membrane-dependent activation of transducin by DEN (AMP analogues): DEN 5.0 mM, test compound 5.0 mM, FIG. 2; for inhibition of in vitro activation of transducin (G-protein) by taste membranes plus bitter compounds, summary statement: DEN, QUI and other bitter compounds, concentrations not given. The format is biochemical, Bovine (Bos primigenius). The text has this:
Taste receptor is contacted with gustducin or transducin and tastant, in the presence or absence of test inhibitor, under conditions suitable for activation of the G-protein present. […] In specific non-limiting embodiments, a subunits of transducin or gustducin may be combined with βγ subunits prior to this step, as set forth above. To the reaction mixture comprising taste receptors and gustducin or transducin, test inhibitor and/or bitter tastant may be added, and the resulting solution incubated to permit interaction of the elements.
In preferred embodiments, activation is assessed by a trypsin digestion assay. […] In a specific, non-limiting example, to perform a trypsin digestion assay according to the invention, TPCK-treated trypsin (1:25 trypsin to total protein in the reaction mixture) may be added, and the digestion may be performed at room temperature for about 15 minutes and stopped by adding soybean trypsin inhibitor (6:1 mol/mol inhibitor to trypsin). […] The separated polypeptides may then be transferred by electro-blotter to a poly (vinylidene difluoride) membrane blocked by the addition of 5% BLOTTO [50 mM Tris-HCI, pH 7.4/100 mM NaCl/5% nonfat dry milk], (30 min). G-protein peptides may then be visualized by binding of antibody directed toward transducin or gustducin, followed, for example, by binding of a detectably labeled secondary antibody. If a horseradish peroxidase-labeled secondary antibody is used, binding may be visualized by developing with bicinchoninic acid staining reagents and exposure to x-ray film.
G Protein Activation Assays. Bovine (Bos primigenius) tongues were collected fresh from a local slaughterhouse and transported on ice to the laboratory. Circumvallate papillae were hand dissected, frozen in liquid nitrogen, and stored at −80° C. until use. […] The pelleted membranes were rinsed twice, resuspended in homogenization buffer lacking protease inhibitors, and further homogenized by 20 passages through a 25-gauge needle. Aliquots were either flash frozen or stored on ice until use. […] The separated polypeptides were transferred by electro-blotter to a poly (vinylidene difluoride) membrane, which was blocked by the addition of 5% BLOTTO [50 mM Tris-HCI, pH 7.4/100 mM NaCl/5% nonfat dry milk], (30 min), then transducin peptides were visualized by binding of transducin antiserum and horseradish peroxidase-labeled goat anti-rabbit secondary antibody, followed by developing with bicinchoninic acid staining reagents from Bio-Rad and exposure to x-ray film.
Chemicals. All bitter tastant and buffer chemicals were of the highest purity available and were purchased either from Sigma or Boehringer Mannheim, unless otherwise noted. […] The rabbit polyclonal antitransducin antibody was a kind gift of Mel Simon and John Watson (California Institute of Technology, Pasadena, Calif.).

Turning to `Cl.Nc1ncnc2nc[nH]c12` [ADE, adenine hydrochloride], the “inhibition of taste membrane-dependent activation of transducin by DEN (AMP analogues)” value (from here on “inhibition … (AMP analogues)”) is, setting by setting: (hydrochloride) “not inhibited”; (listed as adenine, hydrochloride) “did not block”.
In the case of `Nc1ncnc2c1ncn2[C@@H]1O[C@H](COP(=O)(O)OP(=O)(O)OP(=O)(O)O)[C@@H](O)[C@H]1O` [ATP, adenosine 5′ triphosphate], the “inhibition … (AMP analogues)” value is listed as “potently inhibited” and the “inhibition of in vitro activation of transducin (G-protein) by taste membranes plus bitter compounds, summary statement” value (“inhibition … summary statement” for short) is listed as “successfully inhibit”.
For the compound `CC[N+](CC)(CC(=O)Nc1c(C)cccc1C)Cc1ccccc1` [DEN, denatonium benzoate, reference compound], under “tastant itself, no inhibitor”, the “activation of transducin by the tastant in the presence of taste membranes” value (“activation of transducin by the tastant” for short) is listed as “activated transducin”.
On to `Nc1ccn([C@@H]2O[C@H](COP(=O)(O)O)[C@@H](O)[C@H]2O)c(=O)n1` [CMP, 5′-cytidylic acid], for which the “inhibition … (AMP analogues)” value is “inhibited” and the “inhibition … summary statement” value is “successfully inhibit”. In addition, the “inhibition … (AMP analogues)” value (listed as 5′-Cytidylic acid) is reported as “partially inhibited”.
As for `Cl.Nc1ncnc2c1ncn2[C@@H]1O[C@H](CO)[C@@H](O)[C@H]1O` [ADO, adenosine hydrochloride], the “inhibition … (AMP analogues)” value by setting is: (hydrochloride) “not inhibited”; (listed as adenosine, hydrochloride) “did not block”.
Consider `Cc1cn([C@H]2C[C@H](O)[C@@H](COP(=O)(O)O)O2)c(=O)[nH]c1=O` [TMP, thymidine 5′-monophosphate], for which the “inhibition … (AMP analogues)” value was “inhibited” and the “inhibition … summary statement” value is on record as “successfully inhibit”. The “inhibition … (AMP analogues)” value (listed as thymidine 5′-monophosphate) is “potently inhibited”.
Regarding “nicotine hemisulfate [reference compound]”, the “activation of transducin by the tastant” value is recorded as “activated transducin”.
Consider `Nc1ncnc2c1ncn2[C@@H]1O[C@H](COC(=O)CCC(=O)O)[C@@H](O)[C@H]1O` [ASU, adenosine 5′-succinate], for which the “inhibition … (AMP analogues)” value was “inhibited” and the “inhibition … summary statement” value is given as “successfully inhibit”. The “inhibition … (AMP analogues)” value (listed as adenosinc 5′-succinate) is “potently inhibited”.
With `Nc1ncnc2c1ncn2[C@@H]1O[C@H](C(=O)O)[C@@H](O)[C@H]1O` [ACA, adenosine 5′-carboxylate], the “inhibition … (AMP analogues)” value is on record as “not inhibited”. For the same compound, the “inhibition … (AMP analogues)” value (listed as adenosine 5′-carboxylate) is “did not block”.
As for `Cn1c(=O)c2c(ncn2C)n(C)c1=O` [CAF, caffeine, reference compound], the “inhibition … (AMP analogues)” value was “not inhibited”. Besides, the “inhibition … (AMP analogues)” value (listed as caffeine) was “did not block”.
For `Nc1ncnc2c1ncn2[C@@H]1O[C@H](COP(=O)(O)OP(=O)(O)O)[C@@H](O)[C@H]1O` [ADP, adenosine 5′ diphosphate], the “inhibition … (AMP analogues)” value was “potently inhibited” and the “inhibition … summary statement” value was “successfully inhibit”.
Turning to `Cn1c(=O)c2[nH]cnc2n(C)c1=O` [THE, theophylline, reference compound], the “inhibition … (AMP analogues)” value was “not inhibited”. Also, the “inhibition … (AMP analogues)” value (listed as theophylline) was “did not block”.
On to `C[C@@H]1O[C@@H](O[C@H]2[C@H](Oc3cc(O)c4c(c3)O[C@H](c3ccc(O)cc3)CC4=O)O[C@H](CO)[C@@H](O)[C@@H]2O)[C@H](O)[C@H](O)[C@H]1O` [naringin, reference compound], for which the “activation of transducin by the tastant” value (tastant itself, no inhibitor) is “activated transducin”.
Turning to `CCN(CC)CCCC(C)Nc1c2ccc(Cl)cc2nc2ccc(OC)cc12` (stereo not shown) [quinacrine, reference compound], the “activation of transducin by the tastant” value (tastant itself, no inhibitor) is “activated transducin”.
On the same count and under the same terms, to `C=C[C@H]1C[N@@]2CC[C@H]1C[C@H]2[C@H](O)c1ccnc2ccc(OC)cc12` [QUI, quinine hydrochloride, reference compound] belongs “activated transducin”; to `CN1[C@@H]2CC[C@H]1C[C@@H](OC(=O)C(CO)c1ccccc1)C2` (stereo partly shown) [atropine, atropine hydrochloride, reference compound], “activated transducin”.
On to `O=C(O)/C=C/c1ccc(O)c(O)c1` [caffeic acid, reference compound], for which the “activation of transducin by the tastant” value (tastant itself, no inhibitor) is reported as “activated transducin”.
Turning to `Nc1ncnc2c1ncn2[C@@H]1O[C@H](CO)[C@@H](O)[C@H]1OP(=O)(O)O` [adenosine 2′-monophosphate], the “inhibition … summary statement” value is “successfully inhibit”. The “inhibition of DEN/taste receptor activation of transducin” value (concentration not given, not shown in FIG. 2) is given as “potently inhibited”.
In the case of `Nc1ncnc2c1ncn2[C@@H]1O[C@H](COS(=O)(=O)O)[C@@H](O)[C@H]1O` [AMS, adenosine 5′-monosulfate], the “inhibition … (AMP analogues)” value is reported as “not inhibited”. The “inhibition … (AMP analogues)” value (listed as adenosine 5′-monosulfate) is listed as “did not block”.
On to `Nc1ncnc2c1ncn2[C@@H]1O[C@H](CO)[C@@H](OP(=O)(O)O)[C@H]1O` [3′AMP, adenosine 3′ monophosphate], for which the “inhibition … (AMP analogues)” value is given as “potently inhibited” and the “inhibition … summary statement” value is recorded as “successfully inhibit”.
Regarding `C1CCN2C[C@@H]3C[C@@H](CN4CCCC[C@@H]34)[C@H]2C1` [sparteine, reference compound], for the setting “tastant itself, no inhibitor”, the “activation of transducin by the tastant” value is recorded as “activated transducin”.
